According to PMC6112376, “Comprehensive Analyses and Prioritization of Tox21 10K Chemicals Affecting Mitochondrial Function by in-Depth Mechanistic Studies” (Environmental Health Perspectives, 2018):
Read-outs that look alike come from different tables or passages of the source.

Columns and labels:
HepG2 cells [1] = settings: cited from earlier work
rat primary hepatocytes = assay: MMP assay in rat primary hepatocytes; settings: for IC50: read-out: MMP assays IC50 (µM) Rat Hepatocytes
HepG2 cells [2] = settings: for IC50: read-out: MMP assays IC50 (µM) HepG2
[3] = read-out: MMP assays IC50 (µM), qHTS-HepG2
[4] = rat hepatocytes, mean ± SD of three experiments
[5] = HepG2 cells, single number from one experiment
[6] = read-out: MMP assays IC50 (µM) qHTS-HepG2

Row | SMILES | MMP assays efficacy (%) qHTS-HepG2 (HepG2 cells [1]) | IC50 (HepG2 cells [1]; [3]) | MMP assays efficacy (%) Rat Hepatocytes (rat primary hepatocytes; [4]) | IC50 (rat primary hepatocytes; [4]) | MMP assays efficacy (%) HepG2 (HepG2 cells [2]; [5]) | IC50 (HepG2 cells [2]; [5]) | IC50 (HepG2 cells [1]; [6]) | IC50 (rat primary hepatocytes; Rattus norvegicus, Hepatocyte) | MMP assays IC50 (µM) HepG2 (HepG2 cells [2]) | MMP assays efficacy (%) HepG2 (HepG2 cells [2]) | MMP assays IC50 (µM) HepG2 (HepG2 cells [2]; [5]) | MMP assays IC50 (µM) Rat Hepatocytes (rat primary hepatocytes; [4]) | IC50 (rat primary hepatocytes) | IC50 (HepG2 cells [2])
1 | CCCCCCCC[N+](C)(CCCCCCCC)CCCCCCCC.[Cl-] [N-Methyl-N,N-dioctyloctan-1-aminium chloride] | -80±6% | 2.73 ± 0.32 µM | -100±17% | 19.6 ± 4.89 µM | -89% | 10 µM | – | – | – | – | – | – | – | –
2 | CC(=O)O[C@@]12CO[C@@H]1C[C@H](O)[C@@]1(C)C(=O)[C@H](O)C3=C(C)[C@@H](OC(=O)[C@H](O)[C@@H](NC(=O)OC(C)(C)C)c4ccccc4)C[C@@](O)([C@@H](OC(=O)c4ccccc4)[C@H]21)C3(C)C [Docetaxel] | -57±17% | – | – | – | – | – | 15 ± 29.8 µM | 12.1 ± 4.78 µM | inactive | inactive | – | – | – | –
3 | O=Cc1c2ccccc2c(Cl)c2ccccc12 [Compound 10-Chloro-9-anthraldehyde] | -82±26% | – | -47±21% | 24.3 ± 28.8 µM | inactive | – | 13.9 ± 7.82 µM | – | – | – | inactive | – | – | –
4 | C(=Cc1ccncc1)c1ccccc1 [Compound 4-Styrylpyridine] | -65±10% | – | inactive | – | inactive | – | 11.2 ± 5.54 µM | – | – | – | inactive | inactive | – | –
5 | CCCCCCOc1ccccc1C(N)=O [Exalamide] | -73±11% | – | -59±17% | – | inactive | – | 9.81 ± 3 µM | 29.2 ± 2.37 µM | – | – | inactive | – | – | –
6 | Nc1nc(-c2ccc([N+](=O)[O-])cc2)cs1 [2-Amino-4-(p-nitrophenyl)thiazole] | -59±9% | – | -53±16% | 20.6 ± 21.1 µM | -54% | 8.91 µM | 3.9 ± 1.78 µM | – | – | – | – | – | – | –
7 | O.O.O.O.[Na+].[O-]c1ccccc1-c1ccccc1 [Sodium 2-phenylphenate tetrahydrate] | -98±8% | 18.5 µM | inactive | – | -77% | 31.6 µM | – | – | – | – | – | inactive | – | –
8 | CCCCCCCCOc1ccc(C(=O)O)cc1 [4-Octyloxybenzoic acid] | -100±24% | – | -57±30% | 48 ± 11.6 µM | inactive | – | 39.6 ± 31.3 µM | – | – | – | inactive | – | – | –
9 | CC(O)C(=O)O.CCOc1ccc2nc3cc(N)ccc3c(N)c2c1.O [Ethacridine lactate hydrate] | -103±8% | – | -98±24% | 10.2 ± 5.58 µM | – | 5.48 µM | 3.22 ± 0.55 µM | – | – | – | – | – | – | –
10 | C=CCc1cc(S(=O)(=O)c2ccc(O)c(CC=C)c2)ccc1O | -114±19% | – | -52±23% | 24.5 ± 19.9 µM | -107% | 15.8 µM | 45 ± 17.9 µM | – | – | – | – | – | – | –
11 | Cl.Nc1ccc2cc3ccc(N)cc3nc2c1 [Proflavin hydrochloride] | -115±14% | 1.66 ± 0.63 µM | -79±34% | 15.9 ± 5.23 µM | -97% | 3.55 µM | – | – | – | – | – | – | – | –
12 | C[C@H]1C[C@H]2[C@@H]3CCC4=CC(=O)C=C[C@]4(C)[C@@]3(F)[C@@H](O)C[C@]2(C)[C@@]1(O)C(=O)CCl [Clobetasol] | -91±13% | – | -64±43% | 19.8 ± 15.6 µM | -87% | 17.3 µM | 14.4 ± 3.67 µM | – | – | – | – | – | – | –
13 | CCCCCCCCCCCCCC[P+](CCCCCC)(CCCCCC)CCCCCC.N#C[N-]C#N | -103±9% | 0.39 ± 0.19 µM | -81±9% | 31 ± 11.7 µM | -94% | 0.89 µM | – | – | – | – | – | – | – | –
14 | c1ccc2c(c1)OCC(C1=NCCN1)O2 (stereo not drawn) [Idazoxan] | -60±9% | 20.6 ± 7.46 µM | inactive | – | inactive | – | – | – | – | – | inactive | inactive | – | –
15 | O=C(Nc1ccc([N+](=O)[O-])cc1)Nc1ccc([N+](=O)[O-])cc1 [4,4'-Dinitrodiphenylurea] | -79±2% | – | – | – | – | – | 0.46 ± 0.06 µM | – | – | -90% | – | – | 0.7 ± 0.46 µM | 0.97 µM
